Results: PMC5078989, “Targeted inhibition of the COP9 signalosome for treatment of cancer” (Nature Communications, 2016)
pEC50: −log10 of the molar value.

System: panel of cancer cell lines
Assay: Cell viability (CellTiter-Glo) dose-response across cancer cell line panel;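 as to pEC50: after 72 h compound incubation with CellTiter-Glo ATP readout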
Format: cell-based, human
Conditions: for pEC50: Homo sapiens
From the text: Next, we explored the effect of CSN5 inhibition on the viability of cancer cells. To obtain a comprehensive picture, we generated dose–response curves with a CSN5 inhibitor across more than 500 cancer cell lines in a previously described standardized setting[47] (Supplementary Data 1).
A standardized CellTiter-Glo Assay (Promega #G7570) based on the quantification of ATP was applied according to the manufacturer's protocol to measure the amount of viable cells in culture. In brief, cells were seeded into 384-well plates at optimal density for each cell line. After 4 h, compounds were added at different concentrations in growth medium and incubated for another 72 h in a humidifying chamber at 37 °C and 5% CO2. […] EC50 values were calculated from the plot of percentage of inhibition versus inhibitor concentration using the nonlinear regression analysis software Origin 7.5SR6 (OriginLab Corp.).

Work on `COCc1ccccc1NCc1ccc([C@H]2[C@@H](O)CCCc3cncn32)c(-c2ccccc2Cl)c1` [CSN5i-2, (5S,6S)-5-(2′-chloro-5-(((2-(methoxymethyl)phenyl)amino)methyl)-[1,1′-biphenyl]-2-yl)-6,7,8,9-tetrahydro-5H-imidazo[1,5-a]azepin-6-ol] yielded a pEC50 (SNU-449, SNU-449) of 5.67, a pEC50 (SNU-475, SNU-475) of 5.58 and a pEC50 (SNU-685) of 5.68. The pEC50 (SNU-738) was 4.85, the pEC50 (SNU-761) was 6.55 and the pEC50 (SNU-1040) was 4.57. For the same compound, the pEC50 (SNU-1079) was 6.18, the pEC50 (SNU-C1, SNU-C1) was 4.93 and the pEC50 (SNU-C2A) was 5.29. For the same compound, the pEC50 (SNU-C4, SNU-C4) was 5.64, the pEC50 (SNU-C5) was 6.29 and the pEC50 (SR-786, SR-786) was 6.29. It also gave a pEC50 (SU-DHL10, SU-DHL-10) of 6.19, a pEC50 (SU-DHL-4, SU-DHL-4) of 6.15 and a pEC50 (SU-DHL-5, SU-DHL-5) of 6.79. The pEC50 (SU-DHL-6, SU-DHL-6) was 6.58, the pEC50 (SU-DHL-8, SU-DHL-8) was 6.33 and the pEC50 (SU.86.86, SU.86.86) was 4.57. For the same compound, the pEC50 (SUIT-2, SUIT-2) was 5.69, the pEC50 (SUM44PE) was 4.77 and the pEC50 (SUM52PE) was 5.39. It also gave a pEC50 (SUM149PT) of 6.05, a pEC50 (SUM185PE) of 4.95 and a pEC50 (SUM190PT) of 5.53. It also gave a pEC50 (SUP-T1, SUP-T1) of 6.11, a pEC50 (SW48, SW48) of 5.49 and a pEC50 (SW480, SW480) of 5.74. The pEC50 (SW837, SW837) was < 4.52, the pEC50 (SW900, SW 900) was 5.84 and the pEC50 (SW982, SW982) was 5.86. The pEC50 (SW1271, SW 1271) was 6.12, the pEC50 (SW1353, SW 1353) was 5.86 and the pEC50 (SW1573, SW 1573) was 5.97. For the same compound, the pEC50 (SW1783, SW 1783) was 6.45, the pEC50 (SW-403, SW403) was < 4.52 and the pEC50 (SW-620, SW620) was 5.53. The pEC50 (SYO-1) was 6.33, the pEC50 (Sq-1) was 5.90 and the pEC50 (T3M4, T3M-4) was 5.62. For the same compound, the pEC50 (T47D, T-47D) was 5.99, the pEC50 (TALL-1, TALL-1) was 6.19 and the pEC50 (TANOUE) was 6.60. For the same compound, the pEC50 (TC-71, TC-71) was 5.70, the pEC50 (TCC-PAN2) was 6.09 and the pEC50 (TE-1, TE-1) was 6.12. For the same compound, the pEC50 (TE-6, TE-6) was 5.77, the pEC50 (TE-11, TE-11) was 5.99 and the pEC50 (TE-14) was 5.44. For the same compound, the pEC50 (TE-15, TE-15) was 7.16, the pEC50 (TF-1, TF-1) was 5.59 and the pEC50 (THP-1, THP-1) was 6.20. For the same compound, the pEC50 (TT2609-C02) was 5.75, the pEC50 (TYK-nu) was 6.81 and the pEC50 (U266B1) was 6.31. The pEC50 (U-87 MG) was 5.93, the pEC50 (U-118-MG, U-118 MG) was 5.89 and the pEC50 (U-251, U-251 MG) was 5.79. It also gave a pEC50 (U-937, U-937) of 6.45, a pEC50 (UACC-62, UACC-62) of 5.43 and a pEC50 (UACC-257, UACC-257) of 6.26. The pEC50 (UCH1, UCH-1) was 6.38, the pEC50 (UKE1, UKE1) was 6.80 and the pEC50 (VM-CUB-1, VM-CUB1) was 5.17. For the same compound, the pEC50 (VMRC-LCD) was 6.02, the pEC50 (VMRC-RCW) was 5.66 and the pEC50 (WM 266-4, WM-266-4) was 5.84. It also gave a pEC50 (WM983B, WM-983B) of 5.86, a pEC50 (WM-88) of 4.70 and a pEC50 (WM-115, WM-115) of 5.90. The pEC50 (WM-1799, WM1799) was 5.76, the pEC50 (WSU-WM) was 6.09 and the pEC50 (YAPC) was 6.24. For the same compound, the AMAX (Hs 294T) was -53.6994, the AMAX (Hs 695T) was -69.7728 and the AMAX (Hs 936.T) was -84.1429. The AMAX (HuG1-N) was -75.3496, the AMAX (HuH-7) was -82.3154 and the AMAX (IGR-37) was -80.2025. For the same compound, the AMAX (IGROV1) was -66.8455, the AMAX (IPC-298) was -65.2966 and the AMAX (Ishikawa) was -71.6276. It also gave an AMAX (JHH-4) of -91.4689, an AMAX (JHOS-2) of -38.1051 and an AMAX (JHUEM-2) of -86.9649. The AMAX (JL-1) was -47.9564, the AMAX (JVM-2) was -85.1393 and the AMAX (KARPAS-422) was -79.6206. The AMAX (KATO III) was -58.0161, the AMAX (KBM-7) was -95.2333 and the AMAX (KE-97) was -97.8925. For the same compound, the AMAX (KMRC-1) was -54.4009, the AMAX (KP4) was -68.6951 and the AMAX (KP-1N) was -56.9313. It also gave an AMAX (KP-3) of -58.802, an AMAX (KU-19-19) of -51.5044 and an AMAX (KYSE-150) of -49.8534. For the same compound, the AMAX (KYSE-180) was -63.0038, the AMAX (Kasumi3) was -93.6402 and the AMAX (LUDLU-1) was -71.9634. For the same compound, the AMAX (MFE-280) was -66.9982, the AMAX (MG-63) was -59.1323 and the AMAX (MM138) was -89.9344. It also gave an AMAX (MM415) of -88.4479, an AMAX (MM426) of -60.9162 and an AMAX (MM485) of -69.291. It also gave an AMAX (MM537) of -73.4726, an AMAX (MM576) of -52.394 and an AMAX (MOLM-16) of -89.6899. For the same compound, the AMAX (MOLT-13) was -95.3007, the AMAX (MeWo) was -53.7976 and the AMAX (NB-1) was -92.7531. For the same compound, the AMAX (NCI-H82) was -95.3022, the AMAX (NCI-H211) was -68.3447 and the AMAX (NCI-H322) was -37.8008. It also gave an AMAX (NCI-H441) of -64.9424, an AMAX (NCI-H647) of -44.0246 and an AMAX (NCI-H650) of -44.5856. The AMAX (NCI-H810) was -67.8352, the AMAX (NCI-H841) was -78.3347 and the AMAX (NCI-H1155) was -84.5649. It also gave an AMAX (NCI-H1299) of -58.5091, an AMAX (NCI-H1339) of -66.5268 and an AMAX (NCI-H1373) of -65.8548. It also gave an AMAX (NCI-H1568) of -93.8026, an AMAX (NCI-H2087) of -59.3219 and an AMAX (NCI-H2122) of -79.8003. For the same compound, the AMAX (NCI-H2126) was -18.8926, the AMAX (NCI-H2172) was -75.6398 and the AMAX (NCI-H2452) was -33.7782. For the same compound, the AMAX (NCI-N87) was -47.3502, the AMAX (ONCO-DG-1) was -61.2577 and the AMAX (OUMS-23) was -82.8646. It also gave an AMAX (OV56) of -76.0147, an AMAX (P3HR-1) of -76.4402 and an AMAX (P12-ICHIKAWA) of -95.4636. For the same compound, the AMAX (PC-3) was -57.0972, the AMAX (Panc 03.27) was -70.0008 and the AMAX (Panc 10.05) was -84.7778. It also gave an AMAX (RT-112) of -42.1113, an AMAX (SEM) of -97.9816 and an AMAX (SK-ES-1) of -89.0847. For the same compound, the AMAX (WM-88) was -55.011, the “maximal loss of viability” value (other, less sensitive cell lines of the panel) was 40–60% and the “Amax (high-concentration effect level)” value (some cell lines of the panel (cytotoxic)) was ≤ −80%.
